The source of these data is publication PMC9196629, “Synthesis, Characterization and Antitumor Mechanism Investigation of Heterometallic Ru(Ⅱ)-Re(Ⅰ) Complexes” (Frontiers in Chemistry, 2022).

Where only a bound is given, the exact number is not on record here.

Experiment [1] concerns HeLa, HepG2, A549, A549R cancer cell lines. Nature of the experiment: MTT cytotoxicity assay, summary over the cell lines screened. As to conditions: 48 h. In kind it is cell-based, human. As for the experimental part: (§1) The anticancer activities of RuRe-1 and RuRe-2 against four cancer cell lines: HeLa (human cervical cancer cells), HepG2 (human hepatocellular carcinoma), A549 (human lung cancer cells), A549R (cisplatin-resistant A549) and one normal cell line LO2 (human normal liver cells) were determined by 3-(4,5-dimethylthiazole)-2,5-diphenyltetraazolium bromide (MTT) assay, while the mononuclear complexes Ru-1, Ru-2, Re-1 and cisplatin were selected as controls. […] And the in vitro antiproliferative efficacies of the compounds against HeLa cells were in the following order: RuRe-2 > RuRe-1 > Re-1 > cisplatin > Ru-1 > Ru-2. […] The anticancer activity of the mononuclear rhenium complex Re-1 was between 5.6 μM and 8.0 μM, which contributed the most to the antitumor activities of the heteronuclear Ru(II)-Re(Ⅰ) metal complexes.
In vitro cytotoxicity assay. The anti-tumor activity of mononuclear complexes Ru-1, Ru-2, Re-1 and heteronuclear RuRe-1 and RuRe-2 were determined by MTT (5 mg/mL) assay. Cells were placed in 96-well plates and cultured for 24 h at 37 ℃ in a 5% CO2 incubator. After replacing the culture medium with fresh medium containing RuRe-1 or RuRe-2 at the indicated concentration, cells were cultured for 48 h. 20 μL MTT was added to each well 4 h before the end of the incubation. […] The absorbance of living cells at 570 nm was detected.

Experiment [2] concerns A549R (cisplatin-resistant A549). Nature of the experiment: MTT cytotoxicity assay. In kind it is cell-based, human. As to conditions: MTT, 48 h incubation, mean ± SD. As for the experimental part:
as §1
(§2) Cell lines and culture conditions. HeLa, HepG2, A549, A549R and LO2 cells were purchased from Nanjing KeyGen Biotech., and cultured in DMEM or RPMI 1640 complete medium at 37 ℃ with 5% CO2 atmosphere.
(§3) In vitro cytotoxicity assay. The anti-tumor activity of mononuclear complexes Ru-1, Ru-2, Re-1 and heteronuclear RuRe-1 and RuRe-2 were determined by MTT (5 mg/mL) assay. Cells were placed in 96-well plates and cultured for 24 h at 37 ℃ in a 5% CO2 incubator. After replacing the culture medium with fresh medium containing RuRe-1 or RuRe-2 at the indicated concentration, cells were cultured for 48 h. 20 μL MTT was added to each well 4 h before the end of the incubation. Subsequently, the liquid in the cell wells was poured out and 150 μL/well DMSO was added to dissolve the MTT-formazan crystals. The absorbance of living cells at 570 nm was detected.

Experiment [3] deals with A549 (human lung cancer cells). Nature of the experiment: MTT cytotoxicity assay. Type of experiment: cell-based. As to conditions: 48 h incubation, mean ± SD. On the procedure:
as §1, §2, §3

Experiment [4] has as its system LO2 (human normal liver cells). Kind of experiment: MTT cytotoxicity assay. As to conditions: 48 h incubation, mean ± SD. Type of experiment: cell-based. As for the experimental part: as §1, §2, §3
(Tetrazolium dyes change colour on reduction, which living cells bring about.)

For experiment [5], the system named is HepG2 (human hepatocellular carcinoma). Kind of experiment: MTT cytotoxicity assay. In kind it is cell-based. As to conditions: 48 h incubation, mean ± SD. On the procedure:
as §1, §2, §3

For experiment [6], the system named is HeLa (human cervical cancer cells). Nature of the experiment: MTT cytotoxicity assay. In kind it is cell-based. As to conditions: 48 h incubation, mean ± SD. On the procedure:
as §1, §2, §3

Take `F[P-](F)(F)(F)(F)F.F[P-](F)(F)(F)(F)F.[Ru+2].c1ccc(-c2ccccn2)nc1.c1ccc(-c2ccccn2)nc1.c1cnc2c(c1)c1nc(-c3ccncc3)[nH]c1c1cccnc12` [Ru-1, reference compound]: in experiment [1], the “antitumor activity against all cancer cell lines screened” value is given as “negligible antitumor activity”. Also, the IC50 (as a rule, the point on the concentration scale where inhibition reaches its midpoint) in experiment [2] was > 50 µM; in experiment [3] it was > 50 µM; in experiment [4], > 50 µM; in experiment [5], > 50 µM; in experiment [6], 39.8 ± 0.6 µM.
Turning to `F[P-](F)(F)(F)(F)F.F[P-](F)(F)(F)(F)F.c1cc2ccc3ccc[n+]4c3c2[n+](c1)[Ru-4]412([n+]3cccc4ccc5ccc[n+]1c5c43)[n+]1cccc3c4nc(-c5ccncc5)[nH]c4c4ccc[n+]2c4c31` [Ru-2], the “antitumor activity against all cancer cell lines screened” value in experiment [1] is recorded as “negligible antitumor activity”. Also, the half-maximal inhibitory concentration (IC50) in experiment [2] was > 50 µM; in experiment [3], > 50 µM; in experiment [4], > 50 µM; in experiment [5], > 50 µM; in experiment [6], 43.6 ± 1.2 µM.
As for `N.N.[Cl][Pt][Cl]` [Cisplatin, reference compound], the IC50 came out at 90.3 ± 0.3 µM in experiment [2]; 25.9 ± 0.8 µM in experiment [3]; 22.5 ± 2 µM in experiment [4]; 23.5 ± 2 µM in experiment [5]; 19.3 ± 0.5 µM in experiment [6].
